The values that follow come from the METLIN SMRT retention time set (Domingo-Almenara et al. 2019).

The series in a line: gradient 5% acetonitrile 3 min, to 50% in 2 min, to 85% in 15 min, held 3 min, 100 µL/min. As to conditions: column: Zorbax Extend-C18 2.1 x 50 mm; eluents: water / acetonitrile, 0.1% formic acid. In short, it runs like this:
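The mobile phases were water and acetonitrile, each with 0.1% formic acid, pumped at 100 μL/min through a Zorbax Extend-C18 column (2.1 × 50 mm, 1.8 μm). Pure standards were injected as mixtures of ~100 molecules and detected by a quadrupole time-of-flight mass spectrometer in positive and negative ionization mode. Retention time came from computationally picked adduct peaks, each inspected by hand.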
In turn, `Cc1ccc(NC(=O)COc2cc(C)nc(N3CCN(c4ccccc4)CC3)n2)c(C)c1` gave an RP-LC retention time of 914 s. The same measure for `CCC(c1cccs1)N1C(=O)[C@H]2CN(Cc3cccnc3)C[C@H]2C1=O` (stereo not given in full): 653 s. As for `CCC1CCCCN1C(=O)CN1CN(c2ccc(C)cc2)c2ncccc2S1(=O)=O` (stereo not given), the RP-LC retention time worked out at 1030 s.

Take `O=C(C1c2ccccc2CCN1C(=O)C1CC1)N1CCN(c2ccc(F)cc2)CC1` (stereo not given): the RP-LC retention time stood at 943 s. With `CCOCC(=O)Nc1ccc(-c2cn3c(C(=O)N(C)C)csc3n2)cc1` the figure was 647 s; with `Cc1cc(CN2CCC(CNC(=O)NCc3cccs3)CC2)c(C)o1`, 578 s. In the case of `CCn1cc(-c2ccc(Cl)cc2)cc1C(=O)NC(C)c1cccnc1` (stereo not given), the RP-LC retention time was 758 s. The same measure for `CN1C(=O)c2cccn2CC1C(=O)NCCc1c[nH]c2ccccc12` (stereo not given): 690 s; for `O=C(c1ccc(F)cc1)N1CCCN(c2nnc3ccc(Cl)cn23)CC1`: 689 s; for `CC(C)CN1Cc2ccccc2-n2ccnc2C12CCN(C(=O)c1ccc(F)cc1)CC2`: 739 s. The compound `O=C(Nc1ccc(N2CCN(C3CCCC3)C2=O)nc1)c1cc(F)cc(F)c1` had an RP-LC retention time of 917 s. `Cc1noc(C)c1CNC(=O)Cc1ccccc1F` displayed an RP-LC retention time of 696 s. As to `CC(C)CCN1CCC(N2CCN(S(=O)(=O)c3ccc(F)cc3)CC2)C1=O` (stereo not given), the RP-LC retention time was 662 s. The same measure for `COc1ccc(-c2nnc(-c3cc(S(=O)(=O)Nc4cccnc4)ccc3Cl)o2)cc1`: 803 s. With `CCC(C)n1nnc2cc(S(=O)(=O)N3CCC(C(=O)NCc4cccnc4)CC3)ccc21` (stereo not given) the figure was 648 s; with `COc1ccc(-c2nc3ncccn3c2Nc2cc(C)cc(C)c2)cc1`, 784 s. The same measure for `Cc1cccc(NC(=O)N2CCC(OC3CCN(S(C)(=O)=O)CC3)CC2)c1C`: 718 s. In turn, `Cc1sc2ccn(CC(C)C)c(=O)c2c1C(=O)NCc1ccc(F)cc1` yielded an RP-LC retention time of 917 s. Compound `CCCCNC(=O)c1nc(Nc2ccccc2)c2ccccc2n1` registered an RP-LC retention time of 801 s. The compound `Cc1ccc(-c2noc(Cc3nc(-c4ccccc4)cs3)n2)cc1` displayed an RP-LC retention time of 1260 s. The same measure for `CCCCOc1ccc(C(=O)NCCc2cn3ccc(C)cc3n2)cc1`: 588 s. In turn, `CC1CCN(S(=O)(=O)c2ccc3nn(Cc4ccccc4)c(=O)n3c2)CC1` showed an RP-LC retention time of 893 s.

Turning to `CC(C)c1cc(C(F)(F)F)nc(NNc2nc(C(C)C)cc(C(F)(F)F)n2)n1`, the RP-LC retention time amounted to 924 s. The same measure for `Cc1ccc(C(=O)NCCn2c(C)cnc2C)s1`: 589 s; for `Cc1cc(N2CCN(C(=O)c3ccccc3)CC2)nc2nncn12`: 558 s; for `CC(=O)Nc1ccc(Cc2nc(-c3cccc(-c4ccnn4C)c3)no2)cc1`: 874 s. For the compound `Cc1nn(CC(=O)NCC2CCCO2)c(=O)c2nn(-c3ccccc3)c(C)c12` (stereo not given), the RP-LC retention time came to 651 s. Turning to `CC(Oc1ccccc1)C(=O)N1CCc2c(c(C(=O)NCc3ccc4c(c3)OCO4)nn2C)C1` (stereo not given), the RP-LC retention time turned out to be 818 s. Turning to `O=C(c1ccccc1[N+](=O)[O-])N1CCN(Cc2nc(-c3ccco3)cs2)CC1`, the RP-LC retention time was 682 s. Compound `Cn1c(C(=O)Nc2cccc(Cl)c2)cc2c(=O)oc3ccccc3c21` registered an RP-LC retention time of 1050 s. As for `Cc1ccc(NC(=O)Cn2cc3c(n2)CCC(C)C3)c(Cl)c1` (stereo not given), the RP-LC retention time came out at 1110 s.

Regarding `CCOC(=O)C1=C(CN2CCN(c3ccccn3)CC2)NC(=O)NC1c1ccc(OC(C)C)cc1` (stereo not given), the RP-LC retention time turned out to be 668 s. `CCN1CCN(c2ccc(NC(=O)c3cccc(Cl)c3)cn2)C1=O` gave an RP-LC retention time of 802 s. `Cc1occc1C(=O)N1CC(c2nc(CCN(C)C(=O)C3CC3)no2)C1` registered an RP-LC retention time of 661 s. Compound `Cc1c(Cl)cccc1S(=O)(=O)N1CCN(c2nc3ccncc3n(C)c2=O)CC1` came in with an RP-LC retention time of 732 s. Compound `Cc1nn(C(C)C(=O)Nc2cccc(F)c2)c(=O)c2c(-n3cccc3)n(-c3ccccc3)nc12` (stereo not given) displayed an RP-LC retention time of 1120 s. `Cc1ccc(NC(=O)N2CCC(c3nc(C(=O)N(C)C)c(C)o3)CC2)cc1C` gave an RP-LC retention time of 726 s. On to `O=C1c2cc(O)cc(O)c2OC[C@@H]1c1ccc(O)c(O)c1`, for which the RP-LC retention time is 834 s. The same measure for `CCc1cccc(C)c1Nc1c(-c2ccccc2O)nc2ncccn12`: 907 s; for `CCOCCCNC(=O)c1cc2sc(CC)cc2n1C`: 960 s. As to `O=C(CN1CCN(C(=O)Nc2ccc(Br)cc2)CC1=O)NCc1ccco1`, the RP-LC retention time was 718 s. The same measure for `Cc1cc(N2CCN(S(=O)(=O)c3ccc(F)cc3)CC2)nc(NC2CCCCC2)n1`: 797 s; for `COc1ccc(N2CCN(CCNC(=O)c3cccs3)CC2)cc1`: 557 s. Compound `Cc1cc(O)c(C(C)C)cc1NC(=O)Nc1cccc2ccccc12` came in with an RP-LC retention time of 1190 s. With `Cc1cc(N2CCN(C(=O)c3ccc(N(C)C)cc3)CC2)nc2nnc(C)n12`, the RP-LC retention time was found to be 579 s. For the compound `COCCn1cc2c3c(cccc31)CN(C(=O)Nc1ccc(OC)cc1OC)CC2`, the RP-LC retention time turned out to be 883 s. In turn, `Cc1ccc2c(Nc3ccc(C)c(C)c3)c(C(=O)N3CCCCC3C)cnc2n1` (stereo not given) came in with an RP-LC retention time of 672 s. The same measure for `O=C1CCCc2cc(S(=O)(=O)N3CCC(C(=O)N4CCC5(CC4)OCCO5)CC3)ccc2N1`: 662 s; for `O=C(NCCN1CCCCC1)C1CCN(c2nc3cccnc3s2)CC1`: 581 s; for `Cc1noc(C)c1-c1ccc(S(=O)(=O)NCc2ccccc2)cc1`: 916 s. Take `CN(C)[C@@H]1CN(C(=O)C2CCCC2)CC[C@@H]1CO`: the RP-LC retention time was 569 s.

For the compound `CCOc1cc(=O)n2c(c1C(=O)OCc1cccc(F)c1)CCCC2`, the RP-LC retention time is 900 s. Compound `Cc1nc(C)c(C(=O)NCCn2c(C)cnc2C2CCC2)s1` registered an RP-LC retention time of 570 s. Turning to `Cc1cc(C)cc(N2C(=O)CN(S(=O)(=O)c3ccccc3)CC2(C)C(=O)NC2CCCC2)c1` (stereo not given), the RP-LC retention time was 968 s. `COc1cccc(NC(=O)Cn2c(=O)cc(-c3nc(C(C)C)no3)c3ccccc32)c1` returned an RP-LC retention time of 982 s. Compound `COC(=O)CSCC(=O)Nc1cc(C(F)(F)F)ccc1Cl` displayed an RP-LC retention time of 613 s.

Compound `Cn1c(CNC(=O)C2CCC2)nc2c1CN(S(=O)(=O)c1ccc(Cl)s1)CC2` showed an RP-LC retention time of 666 s. For `CC(C)c1nnc2n1CCN(C(=O)c1cc(-c3cccs3)[nH]n1)C2`, the RP-LC retention time was found to be 628 s.

The compound `CC(C)c1noc(-c2cc(=O)n(CC(=O)Nc3ccc(F)cc3)c3ccccc23)n1` came in with an RP-LC retention time of 995 s. Compound `CC(C)c1nnc(-c2sccc2NC(=O)C2CCC2)o1` displayed an RP-LC retention time of 1230 s.

On to `COc1ccc(-c2noc(-c3nc(Cc4ccccc4)no3)n2)cc1OC`, for which the RP-LC retention time was determined as 1100 s. In the case of `COCc1nc(C2CCN(S(=O)(=O)c3ccc(C#N)cc3)C2)no1` (stereo not given), the RP-LC retention time amounted to 785 s. Compound `O=C(NCCN1CCOCC1)c1ccc(-c2ccc(N3CCSCC3)nc2)cc1` had an RP-LC retention time of 568 s. Regarding `Cc1cccc(-c2ncccc2CNS(=O)(=O)c2cccc(Cl)c2)c1`, the RP-LC retention time was 763 s. For the compound `COc1ccc(S(=O)(=O)N2CCCC(C(=O)NC3CC3)C2)cc1Cl` (stereo not given), the RP-LC retention time turned out to be 780 s.

For `Cc1nn(C)c(C)c1S(=O)(=O)N1CCC(OCCOCc2ccccc2)CC1`, the RP-LC retention time came out at 896 s.

In turn, `CC(C)N(C(=O)Cn1c(C2CC(=O)N(Cc3ccccc3)C2)nc2ccccc21)C(C)C` (stereo not given) yielded an RP-LC retention time of 764 s.

For the compound `CN1c2ccc(F)cc2C(=O)NC12CCN(C(=O)c1ccccc1Cl)CC2`, the RP-LC retention time was 751 s. For the compound `Cc1cccc(NC(=O)Cn2c(=O)n(-c3cccc(C)c3)c(=O)c3c2cc(C)n3C)c1`, the RP-LC retention time is 888 s.

The compound `CCc1ccc(CNC(=O)C2CCCN(c3nccc(C)n3)C2)cc1` (stereo not given) registered an RP-LC retention time of 820 s. The same measure for `COc1cc(C2CC(=O)c3cnc(N4CCN(CCO)CC4)nc3C2)cc(OC)c1OC` (stereo not given): 559 s; for `CCCc1nc(-n2cccc2)sc1C(=O)Nc1ccc(OC)cc1F`: 1150 s. Compound `CCn1c(=O)sc2cc(S(=O)(=O)N3CCC(C(=O)NCc4ccc(C)o4)CC3)ccc21` came in with an RP-LC retention time of 861 s. `COc1cccc(CNC(=O)Cn2ncc3c(c2=O)N(C2CC2)C(=O)CS3)c1` registered an RP-LC retention time of 671 s.

`Cc1cccc(NS(=O)(=O)c2cc3n(c2)CCN(CC(C)C)C3=O)c1`: the RP-LC retention time was determined as 808 s. In the case of `Cc1cnc(Nc2ccc(N3CCN(C)CC3)cc2)nc1Nc1cccc(S(=O)(=O)NC(C)(C)C)c1`, the RP-LC retention time worked out at 608 s. With `CCOC(=O)c1c(S(=O)(=O)N2CCC(C(=O)NCc3cccc(C)c3)CC2)c(C)n(C)c1C` the figure was 841 s; with `Cc1noc(C)c1CC(=O)N1CC(c2noc(C3CCCN3C)n2)C1` (stereo not given), 594 s; with `CCOc1cc(=O)n2c(c1C(=O)Nc1ccc(C#N)cc1)CCCC2`, 708 s. With `Cc1cccn2c(NC(=O)c3ccc(Br)cc3)c(-c3ccccc3)nc12` the figure was 715 s.
